Reference: patent US8741906B2 (priority 2011, dated 2014)
Like-named read-outs stand apart in the source and are kept apart here.

How the values were obtained:
[1] = biological target: T1, human CB2 receptors (Homo sapiens, UniProt P34972); assay: functional cAMP assay, human CB2; type: cell-based; settings: CHO cells expressing human CB2, cAMP; read-out: human CB2 EC50
T1 construct: expressed in transfected cells; host or cells: CHO cells
Summary of the method: (§1)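 CHO cells with human CB1 or CB2 were switched to Krebs Ringer bicarbonate buffer with 1 mM IBMX for 30 min at 30 °C, then given compound for 30 min at 30 °C. cAMP was measured by time-resolved FRET against a cAMP standard curve, and EC50 values were calculated.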

[2] = biological target: T2, human CB1 receptors (Homo sapiens, UniProt P21554); assay: functional cAMP assay, human CB1; type: cell-based
T2 construct: expressed in transfected cells; host or cells: CHO cells
T2 sequence (P21554 whole entry): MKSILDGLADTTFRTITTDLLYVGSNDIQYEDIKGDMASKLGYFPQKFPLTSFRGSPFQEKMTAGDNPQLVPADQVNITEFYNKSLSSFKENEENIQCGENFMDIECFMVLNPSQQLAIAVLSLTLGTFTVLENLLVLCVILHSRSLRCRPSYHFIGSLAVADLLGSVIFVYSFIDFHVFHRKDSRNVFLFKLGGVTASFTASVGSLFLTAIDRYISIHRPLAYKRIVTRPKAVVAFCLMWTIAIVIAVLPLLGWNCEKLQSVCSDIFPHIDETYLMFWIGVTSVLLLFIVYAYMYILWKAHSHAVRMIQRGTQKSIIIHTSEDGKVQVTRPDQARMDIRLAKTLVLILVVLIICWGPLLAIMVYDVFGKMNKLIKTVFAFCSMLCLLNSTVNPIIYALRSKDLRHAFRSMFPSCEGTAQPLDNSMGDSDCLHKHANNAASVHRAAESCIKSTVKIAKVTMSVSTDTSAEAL
Summary of the method: as §1

[3] = CHO cells expressing human CB1, cAMP, read-out: human CB1 EC50

T1 sequence (P34972 whole entry): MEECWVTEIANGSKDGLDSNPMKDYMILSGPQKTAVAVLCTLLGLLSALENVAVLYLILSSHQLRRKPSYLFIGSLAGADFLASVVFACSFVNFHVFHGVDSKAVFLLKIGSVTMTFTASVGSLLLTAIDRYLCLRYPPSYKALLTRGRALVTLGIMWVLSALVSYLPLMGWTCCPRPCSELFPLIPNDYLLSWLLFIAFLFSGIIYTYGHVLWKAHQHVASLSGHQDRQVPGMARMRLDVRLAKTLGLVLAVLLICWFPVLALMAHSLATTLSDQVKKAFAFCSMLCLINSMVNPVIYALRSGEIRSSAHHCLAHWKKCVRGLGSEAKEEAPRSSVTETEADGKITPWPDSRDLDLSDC

SMILES | EC50 [1] [nM] | EC50 [2, 3] [nM] | EC50 [2] [nM]
Cc1nonc1Cn1nnc2c(N3CC(F)(F)C(F)(F)C3)nc(C(C)(C)C)nc21 [Example 173, 5-tert-Butyl-3-(4-methyl-furazan-3-ylmethyl)-7-(3,3,4,4-tetrafluoro-pyrrolidin-1-yl)-3H-[1,2,3]triazolo[4,5-d]pyrimidine] | 0.3 | > 10000 | –
Cc1noc(Cn2nnc3c(N4CC(F)(F)C(F)(F)C4)nc(C(C)(C)C)nc32)n1 [Example 174, 5-tert-Butyl-3-(3-methyl-[1,2,4]oxadiazol-5-ylmethyl)-7-(3,3,4,4-tetrafluoro-pyrrolidin-1-yl)-3H-[1,2,3]triazolo[4,5-d]pyrimidine] | 2 | > 10000 | –
Cc1nnc(Cn2nnc3c(N4CC(F)(F)C(F)(F)C4)nc(C(C)(C)C)nc32)o1 [Example 175, 5-tert-Butyl-3-(5-methyl-[1,3,4]oxadiazol-2-ylmethyl)-7-(3,3,4,4-tetrafluoro-pyrrolidin-1-yl)-3H-[1,2,3]triazolo[4,5-d]pyrimidine] | 1.5 | > 10000 | –
Cn1nnnc1Cn1nnc2c(N3CC(F)(F)C(F)(F)C3)nc(C(C)(C)C)nc21 [Example 176, 5-tert-Butyl-3-(1-methyl-1H-tetrazol-5-ylmethyl)-7-(3,3,4,4-tetrafluoro-pyrrolidin-1-yl)-3H-[1,2,3]triazolo[4,5-d]pyrimidine] | 0.5 | 2000 | –
Cc1nnc(Cn2nnc3c(N4CC(F)(F)C(F)(F)C4)nc(C(C)(C)C)nc32)n1C [Example 177, 5-tert-Butyl-3-(4,5-dimethyl-4H-[1,2,4]triazol-3-ylmethyl)-7-(3,3,4,4-tetrafluoro-pyrrolidin-1-yl)-3H-[1,2,3]triazolo[4,5-d]pyrimidine] | 1.1 | > 10000 | –
Cn1nncc1Cn1nnc2c(N3CC(F)(F)C(F)(F)C3)nc(C(C)(C)C)nc21 [Example 178, 5-tert-Butyl-3-(3-methyl-3H-[1,2,3]triazol-4-ylmethyl)-7-(3,3,4,4-tetrafluoro-pyrrolidin-1-yl)-3H-[1,2,3]triazolo[4,5-d]pyrimidine] | 0.9 | 1890 | –
Cc1nonc1Cn1nnc2c(N3CC4(COC4)C3)nc(C(C)(C)C)nc21 [Example 179, 5-tert-Butyl-3-(4-methyl-furazan-3-ylmethyl)-7-(2-oxa-6-aza-spiro[3.3]hept-6-yl)-3H-[1,2,3]triazolo[4,5-d]pyrimidine] | 2 | > 10000 | –
Cc1noc(Cn2nnc3c(N4CC5(COC5)C4)nc(C(C)(C)C)nc32)n1 [Example 180, 5-tert-Butyl-3-(3-methyl-[1,2,4]oxadiazol-5-ylmethyl)-7-(2-oxa-6-aza-spiro[3.3]hept-6-yl)-3H-[1,2,3]triazolo[4,5-d]pyrimidine] | 52.8 | > 10000 | –
Cc1nnc(Cn2nnc3c(N4CC5(COC5)C4)nc(C(C)(C)C)nc32)o1 [Example 181, 5-tert-Butyl-3-(5-methyl-[1,3,4]oxadiazol-2-ylmethyl)-7-(2-oxa-6-aza-spiro[3.3]hept-6-yl)-3H-[1,2,3]triazolo[4,5-d]pyrimidine] | 59.4 | > 10000 | –
Cn1nnnc1Cn1nnc2c(N3CC4(COC4)C3)nc(C(C)(C)C)nc21 [Example 182, 5-tert-Butyl-3-(1-methyl-1H-tetrazol-5-ylmethyl)-7-(2-oxa-6-aza-spiro[3.3]hept-6-yl)-3H-[1,2,3]triazolo[4,5-d]pyrimidine] | 13.9 | > 10000 | –
CC(C)(C)c1nc(N2CC3(COC3)C2)c2nnn(Cc3nnnn3C3CC3)c2n1 [Example 183, 5-tert-Butyl-3-(1-cyclopropyl-1H-tetrazol-5-ylmethyl)-7-(2-oxa-6-aza-spiro[3.3]hept-6-yl)-3H-[1,2,3]triazolo[4,5-d]pyrimidine] | 4.2 | > 10000 | –
Cc1nnc(Cn2nnc3c(N4CC5(COC5)C4)nc(C(C)(C)C)nc32)n1C [Example 184, 5-tert-Butyl-3-(4,5-dimethyl-4H-[1,2,4]triazol-3-ylmethyl)-7-(2-oxa-6-aza-spiro[3.3]hept-6-yl)-3H-[1,2,3]triazolo[4,5-d]pyrimidine] | 112 | – | > 10000
Cn1nncc1Cn1nnc2c(N3CC4(COC4)C3)nc(C(C)(C)C)nc21 [Example 185, 5-tert-Butyl-3-(3-methyl-3H-[1,2,3]triazol-4-ylmethyl)-7-(2-oxa-6-aza-spiro[3.3]hept-6-yl)-3H-[1,2,3]triazolo[4,5-d]pyrimidine] | 26.8 | > 10000 | –
CC(C)(C)c1nc(N2CC3(COC3)C2)c2nnn(Cc3ccccc3S(C)(=O)=O)c2n1 [Example 186, 5-tert-Butyl-3-(2-methanesulfonyl-benzyl)-7-(2-oxa-6-aza-spiro[3.3]hept-6-yl)-3H-[1,2,3]triazolo[4,5-d]pyrimidine] | 0.3 | 137 | –
CC(C)(C)c1nc(N2CC3(COC3)C2)c2nnn(Cc3ncccc3Cl)c2n1 [Example 187, 5-tert-Butyl-3-(3-chloro-pyridin-2-ylmethyl)-7-(2-oxa-6-aza-spiro[3.3]hept-6-yl)-3H-[1,2,3]triazolo[4,5-d]pyrimidine] | 0.8 | 119 | –
CC(C)(C)c1nc(N2CCC(=O)C2)c2nnn(Cc3ccccc3Cl)c2n1 [Example 188, 1-[5-tert-Butyl-3-(2-chloro-benzyl)-3H-[1,2,3]triazolo[4,5-d]pyrimidin-7-yl]-pyrrolidin-3-one] | 1 | > 10000 | –
CC1(C)CCN(c2nc(C(C)(C)C)nc3c2nnn3Cc2ccccc2Cl)C1 [Example 189, 5-tert-Butyl-3-(2-chloro-benzyl)-7-(3,3-dimethyl-pyrrolidin-1-yl)-3H-[1,2,3]triazolo[4,5-d]pyrimidine] | 33.2 | > 10000 | –
CNC1CCN(c2nc(C(C)(C)C)nc3c2nnn3Cc2ccccc2Cl)C1 (centres unmarked) [Example 190, {1-[5-tert-Butyl-3-(2-chloro-benzyl)-3H-[1,2,3]triazolo[4,5-d]pyrimidin-7-yl]-pyrrolidin-3-yl}-methyl-amine] | 72.6 | > 10000 | –
CN(C)C1CCN(c2nc(C(C)(C)C)nc3c2nnn3Cc2ccccc2Cl)C1 (centres unmarked) [Example 191, {1-[5-tert-Butyl-3-(2-chloro-benzyl)-3H-[1,2,3]triazolo[4,5-d]pyrimidin-7-yl]-pyrrolidin-3-yl}-dimethyl-amine] | 173 | – | > 10000
CC(=O)N[C@H]1CCN(c2nc(C(C)(C)C)nc3c2nnn3Cc2ccccc2Cl)C1 [Example 192, N-{(S)-1-[5-tert-Butyl-3-(2-chloro-benzyl)-3H-[1,2,3]triazolo[4,5-d]pyrimidin-7-yl]-pyrrolidin-3-yl}-acetamide] | 22 | > 10000 | –
CC(=O)N[C@@H]1CCN(c2nc(C(C)(C)C)nc3c2nnn3Cc2ccccc2Cl)C1 [Example 193, N-{(R)-1-[5-tert-Butyl-3-(2-chloro-benzyl)-3H-[1,2,3]triazolo[4,5-d]pyrimidin-7-yl]-pyrrolidin-3-yl}-acetamide] | 593 | > 10000 | –
CC(=O)N(C)C1CCN(c2nc(C(C)(C)C)nc3c2nnn3Cc2ccccc2Cl)C1 (centres unmarked) [Example 194, N-{1-[5-tert-Butyl-3-(2-chloro-benzyl)-3H-[1,2,3]triazolo[4,5-d]pyrimidin-7-yl]-pyrrolidin-3-yl}-N-methyl-acetamide] | 285 | – | > 10000
